Measured values taken from US20240201189A1, “FLUORESCENT PROBE FOR USE IN DETECTION OF PANCREATIC CANCER” (The University of Tokyo, priority 2021, published 2024).
Values joined by “and” are separate entries in the source; they are usually repeats but may differ in a detail not shown here. Equal values may be shown once.

What was measured:
[1] = test system: lysates prepared from tissue fragments of carcinomatous and non-carcinomatous sites (pancreatic cancer resected specimens); test: Primary screening: increase in FI of probes mixed with lysates of carcinomatous and non-carcinomatous tissue; format: biochemical, human; conditions: lysates from five patients; probe 1.0 μM; 60 minutes, 37° C.; FIG. 1A
Experimental: First, according to the procedure described in Non Patent Literatures 6 to 8, each of lysates prepared from tissue fragments of carcinomatous and non-carcinomatous sites was mixed with a fluorescent probe, an increased value of fluorescence intensity was measured, and a fluorescent probe as a candidate was selected. Briefly, 5 μL of a lysate (protein concentration: 0.20 mg/dL) was added dropwise to a well of a black 384 plate in which 15 μL of a library of dipeptide-HMRG compounds (Non Patent Literature 8) was arranged. Final concentrations of the candidate probe and the lysate protein were 1.0 μM and 0.050 mg/dL, respectively.
The fluorescence intensity (FI) of each sample was measured at 0 minutes and 60 minutes after mixing with Envision Multilabel Plate Reader (PerkinElmer, Massachusetts, USA) while performing incubation at 37° C. Excitation and emission wavelengths were set to 485 nm and 535 nm, respectively. An increase in FI was defined as follows.
(Increase in FI)=(FI after 60 minutes)−(FI after 0 minutes)
Probes with the top 10% difference or ratio in the increase in FI in the carcinomatous and non-carcinomatous lysates were selected as candidate probes and evaluated as follows.

[2] = test system: pancreatic cancer tissue in surgically resected specimen; test: Fluorescence imaging of cut surface of surgically resected pancreatic cancer specimens (TBR); format: cell-based, human
Experimental: Immediately after the pancreatic cancer specimen was extracted, the pancreatic cancer specimen was cut so as to include a maximum diameter of pancreatic cancer tissue. Next, the fluorescent probe described above (4 mL, 50 μM) was directly applied to the cut surface and fluorescence imaging was performed using Maestro in Vivo imaging system as described above. The accuracy of the fluorescence imaging was evaluated by a surgeon (RT) and a pathologist (MT) with reference to histopathological findings on the same plane. In addition, a tumor/background ratio (TBR) was also calculated by measuring the increase in average FI from 1 minute to 30 minutes after probe administration in carcinomatous and non-carcinomatous sites based on macroscopic/microscopic findings of the cut surface and corresponding fluorescence images.

[3] = biological target: T1, Human recombinant DPP-IX (Homo sapiens, UniProt Q86TI2); test: Target enzyme search: change in FI of probe after adding DPP-IX; format: biochemical; conditions: probe 1.0 μM; 2,000 seconds; ex/em 495 nm/525 nm; FIG. 5C
T1 construct: purchased abcam ab79621
T1 sequence (Q86TI2 whole entry): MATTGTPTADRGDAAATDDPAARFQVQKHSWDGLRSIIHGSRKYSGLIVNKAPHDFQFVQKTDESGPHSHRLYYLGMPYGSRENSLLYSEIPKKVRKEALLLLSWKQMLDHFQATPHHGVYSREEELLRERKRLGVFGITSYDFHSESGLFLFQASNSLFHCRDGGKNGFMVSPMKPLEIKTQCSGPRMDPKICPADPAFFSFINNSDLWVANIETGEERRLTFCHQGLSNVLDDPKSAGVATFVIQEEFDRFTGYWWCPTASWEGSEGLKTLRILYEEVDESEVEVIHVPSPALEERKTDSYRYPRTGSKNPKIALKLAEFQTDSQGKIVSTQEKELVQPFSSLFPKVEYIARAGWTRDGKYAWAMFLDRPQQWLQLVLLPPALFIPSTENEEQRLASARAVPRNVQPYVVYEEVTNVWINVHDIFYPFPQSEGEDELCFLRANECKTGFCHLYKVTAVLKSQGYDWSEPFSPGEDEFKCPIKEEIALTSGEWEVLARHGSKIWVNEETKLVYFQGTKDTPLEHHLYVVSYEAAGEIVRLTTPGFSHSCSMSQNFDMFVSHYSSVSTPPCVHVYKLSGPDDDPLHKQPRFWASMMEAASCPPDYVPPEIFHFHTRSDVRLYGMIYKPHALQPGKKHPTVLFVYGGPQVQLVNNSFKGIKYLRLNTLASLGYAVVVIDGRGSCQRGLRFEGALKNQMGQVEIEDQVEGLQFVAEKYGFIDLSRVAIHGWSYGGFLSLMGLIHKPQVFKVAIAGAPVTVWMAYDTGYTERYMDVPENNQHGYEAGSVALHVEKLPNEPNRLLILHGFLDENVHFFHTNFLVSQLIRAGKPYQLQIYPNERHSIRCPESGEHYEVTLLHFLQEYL
Experimental: (§1) It was considered that dipeptidyl peptidase 4 (DPP-IV) or a similar enzyme was a target enzyme overexpressed in pancreatic cancer tissue. First, the candidate fluorescent probe was examined whether DPP-IV or the similar enzyme was activated. Human recombinant DPP-IV (50 μL; D 4943, Sigma-Aldrich), DPP-VIII (1.0 μg; ab162872, abcam), and DPP-IX (1.0 μg; ab79621, abcam) were injected into 3.0 mL of a probe solution (1.0 μM) using F-7000 (Hitachi (Tokyo)), and a change in FI during 2,000 seconds was measured. Excitation and emission wavelengths were set to 495 and 525 nm, respectively.

[4] = biological target: T2, Human recombinant DPP-IV (Homo sapiens, UniProt P27487); test: Target enzyme search: change in FI of probe after adding DPP-IV; format: biochemical; conditions: probe 1.0 μM; 2,000 seconds; ex/em 495 nm/525 nm; FIG. 5A
T2 construct: purchased Sigma-Aldrich D 4943
T2 sequence (P27487 whole entry): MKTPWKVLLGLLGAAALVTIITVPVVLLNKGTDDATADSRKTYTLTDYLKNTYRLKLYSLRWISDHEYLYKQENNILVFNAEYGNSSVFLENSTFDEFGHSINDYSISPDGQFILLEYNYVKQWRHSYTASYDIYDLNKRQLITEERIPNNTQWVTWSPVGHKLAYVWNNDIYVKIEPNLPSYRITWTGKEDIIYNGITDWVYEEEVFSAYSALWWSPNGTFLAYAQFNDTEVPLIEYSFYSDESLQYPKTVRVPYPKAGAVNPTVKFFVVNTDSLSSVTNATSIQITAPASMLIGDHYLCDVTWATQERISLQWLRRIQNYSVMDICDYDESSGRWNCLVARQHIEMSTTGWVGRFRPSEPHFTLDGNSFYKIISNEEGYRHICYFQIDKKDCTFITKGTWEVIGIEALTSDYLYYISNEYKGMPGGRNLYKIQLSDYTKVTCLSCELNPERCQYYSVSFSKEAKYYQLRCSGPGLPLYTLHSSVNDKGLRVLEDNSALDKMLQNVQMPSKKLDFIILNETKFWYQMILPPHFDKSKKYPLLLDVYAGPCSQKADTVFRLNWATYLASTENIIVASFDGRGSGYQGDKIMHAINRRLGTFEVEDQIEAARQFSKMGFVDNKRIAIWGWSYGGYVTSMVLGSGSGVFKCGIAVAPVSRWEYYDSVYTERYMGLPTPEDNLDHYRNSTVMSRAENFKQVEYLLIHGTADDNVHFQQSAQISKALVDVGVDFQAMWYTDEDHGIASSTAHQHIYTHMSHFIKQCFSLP
Experimental: as §1

## NCC(=O)N1CCC[C@H]1C(=O)Nc1ccc2c(c1)Oc1cc(N)ccc1C21OCc2ccccc21 (stereo partly drawn) [GP-HMRG]
[1]
  increase in FI in carcinomatous tissue as opposed to non-carcinomatous tissue (lysates): significant increase in FI in carcinomatous tissue
[2]; 30 minutes after spraying, eight patients
  average TBR of the fluorescence images: 1.96 (range, 1.31 to 2.04)
[2]; Patient No. 8, after preoperative chemotherapy, cancer invasion
  TBR in the connective tissue surrounding the splenic artery: 2.04
[2]; Patient No. 8, after preoperative chemotherapy, fibrosis and mucinous changes, few viable cancer cells
  TBR of the main tumor: 1.13
[2]; after topical administration
  time from which increase in fluorescence signal in carcinomatous tissue was confirmed: 1 min
[2]; four of eight patients (Patient Nos. 1, 2, 4 and 5)
  TBR in patients with uniform fluorescence signal of carcinomatous tissue: > 1.9
[2]; one value per patient (Patients 1-8), cut surface, increase in average FI from 1 to 30 minutes, probe 4 mL, 50 μM
  A TBR ratio of FI: 1.98 (2×) and 1.93 and 1.47 and 1.26 and 1.13 and 3.44 and 2.06
[3]
  conversion of probe into fluorescent HMRG in reaction with DPP-IX: converted into a highly fluorescent HMRG
[4]
  conversion of probe into fluorescent HMRG in reaction with DPP-IV: converted into a highly fluorescent HMRG

## CC(C)C[C@H](N)C(=O)N1CCC[C@H]1C(=O)Nc1ccc2c(c1)Oc1cc(N)ccc1C21OCc2ccccc21 (stereo partly drawn) [LP-HMRG]
[1]
  increase in FI in carcinomatous tissue as opposed to non-carcinomatous tissue (lysates): significant increase in FI in carcinomatous tissue

## Nc1ccc2c(c1)Oc1cc(NC(=O)[C@@H]3CCCN3C(=O)[C@@H]3CCCN3)ccc1C21OCc2ccccc21 (stereo partly drawn) [PP-HMRG]
[1]
  increase in FI in carcinomatous tissue as opposed to non-carcinomatous tissue (lysates): significant increase in FI in carcinomatous tissue

## Nc1ccc2c(c1)Oc1cc(NC(=O)[C@@H]3CCCN3C(=O)[C@@H](N)Cc3ccc(O)cc3)ccc1C21OCc2ccccc21 (stereo partly drawn) [YP-HMRG]
[1]
  increase in FI in carcinomatous tissue as opposed to non-carcinomatous tissue (lysates): significant increase in FI in carcinomatous tissue
